In one data set the test system is RSV A strain A2. Put plainly: Antiviral activity against RSV A strain A2 in HEp-2 cells (ELISA virus titer). The class given is cell-based, respiratory syncytial virus.
Another data set has as its system RSV A2 virus. Put plainly: Time-of-addition assay. In kind it is cell-based, respiratory syncytial virus. As to conditions: 300 μg/mL, RSV A2, titer by ELISA. How it is done:
Compounds 14e and 14b at a concentration of 300 μg/mL were added at different time intervals before, after, or during virus inoculation (Figure 2 and Figure 3). The time of compound addition was counted off from Point 0, i.e., the moment of virus entry into the cell. RSV A2 virus was added to cells at a time conventionally designated as […]; then, cells were kept at a temperature of 40 °C for 1 h. Next, at Point 0, unbound virus was washed off, fresh medium containing compounds at the same concentration was added, and the cells were transferred to a thermostat at 37 °C where they were incubated for 25 h. After this, medium collected from each well was used to make a series of ten-fold dilutions with fresh cell culture. The cells were incubated for 6 days. The viral titer was measured by ELISA.
Compounds were added at different time points before, after, or simultaneously with the introduction of the virus. The time of addition of the compounds was counted from Point 0, i.e., the time of entry of the virus into the cell. During the period (−1)–0, the cells together with the virus were incubated at 40 °C. All other experiments were carried out at 37 °C. RSV virus A […] was added to the cells at a time that was conventionally designated as […], after which the cells were kept for an hour at a temperature of 40 °C. Then, at Point 0, the virus was unbound. […]

Data set [1] can be described thus: Cytotoxicity on non-infected HEp-2 cells, MTT assay. In kind it is cell-based. As to conditions: human, non-infected HEp-2 cells, CC50 (50% cytotoxic concentration), MTT, 24 h.
Another data set deals with RSV type B. Briefly: Inhibition of reproduction of RSV type B. In kind it is cell-based. As to conditions: human respiratory syncytial virus. The procedure: The antiviral activity against the respiratory syncytial virus was assessed in a series of 3-fold dilutions of test compounds, starting from ½CC50, which were added to HEp-2 cell culture, at a double concentration, 100 μL per well, followed by addition of 100 μL of the virus in a series of 10-fold dilutions. Cells were incubated at 37 °C and 5% CO2 for 1 h. Then, the virus was washed out, and the compounds were again added at a single concentration and incubated at 37 °C and 5% CO2 for 6 days. For the enzyme-linked immunosorbent assay (ELISA), cell culture was fixed with cold 80% acetone at −20 °C for 15 min, and then washed with phosphate buffered saline containing 0.05% Tween 20. Next, a solution of primary mouse anti-RSV F protein antibodies was added to the culture and incubated at room temperature under continuous stirring for 2 h. Then, cells were again washed with buffer, secondary anti-mouse antibodies were added, and the cells were incubated under continuous stirring for 2 h. […] After 5 min, the reaction was stopped with 0.1 M sulfuric acid, and optical density of the solution was measured at a wavelength of 450 nm. Wells with absorbance values two fold or greater than the cell control were considered to be […]. The virus titer was calculated using the Reed and Muench method. […]

Structures are written as SMILES. Where two headings read alike, the source gives them in different places.

The source of these data is PMC10054240, “New Inhibitors of Respiratory Syncytial Virus (RSV) Replication Based on Monoterpene-Substituted Arylcoumarins” (Molecules, 2023).

By CC50 is commonly meant the concentration that lowers cell viability or growth by half. In the case of `CC1(C)C2CC=C(COc3ccc4c(-c5ccccc5)cc(=O)oc4c3)C1C2` (centres unmarked) [Compound 14b], the “SI (selective index)” value in the data set on RSV A strain A2 is on record as 32.8. For the same compound, the “pIC50 (-lg[IC50])” value with RSV A strain A2 (RSV A, from Table 1 values) was found to be 4.75. Moreover, the EC50 with RSV A strain A2 (read-out: EC50 (50% effective concentration)) stood at 18 ± 0.9 µM. In the data set with RSV A2 virus, the “effect on viral titer depending on time of addition (in words)” value is reported as “reduced the viral titer at all time periods, except for prophylactic use 2 h before virus entry into cells”. The compound further registered a half-maximal cytotoxic concentration (CC50) at 24 h in data set [1] of 591 ± 85.2 µM.

The IC50 is the point on the concentration scale where inhibition reaches its midpoint. With `CC1(C)[C@H]2CC=C(CCCOc3ccc4c(-c5ccccc5)cc(=O)oc4c3)[C@@H]1C2` [Compound 14e, 7-(3-((1R,5S)-6,6-Dimethylbicyclo[3.1.1]hept-2-en-2-yl)propoxy)-4-phenyl-2H-chromen-2-one], the “antiviral activity against RSV A (in words)” value in the data set on RSV A strain A2 (RSV A, HEp-2 cells) is recorded as “inhibiting virus replication at low micromolar concentrations”. Besides, the IC50 in the data set with RSV A strain A2 (human respiratory syncytial virus, HEp-2, RSV A, from Table 1 values, read-out: pIC50 (-lg[IC50]) (converted)) was 7.59 µM. Further, the EC50 was 7.5 ± 0.4 µM in the data set with RSV A strain A2 (human respiratory syncytial virus, HEp-2, read-out: EC50 (50% effective concentration)) and 3 ± 0.2 µM in the data set on RSV type B. In the data set on RSV A2 virus, the “effect on viral titer depending on time of addition (in words)” value is “reduced the viral titer upon addition at all time periods through 6 h after infection”. Besides, the CC50 at 24 h in data set [1] worked out at 1440 ± 85.1 µM.
